{"source": "paper PMC8868285", "about": "“Pharmacological Inhibition of Epac1 Averts Ferroptosis Cell Death by Preserving Mitochondrial Integrity” (Antioxidants, 2022)", "key": {"[1]": {"system": "isolated mitochondria from HT-22 cells", "experiment": "High-resolution respirometry (Oroboros) of isolated mitochondria", "design": "species or system mouse", "protocol": "Mitochondria were isolated from harvested HT-22 cells (4–8 × 10^7 cultivated in T75 flasks) using a semi-automated pump-controlled cell rupture system (PCC) (0.71 mL/min) with syringes (SGE, Trajan© Scientific, Ringwood, Australia) attached to a cell homogenizer (Isobiotech, EMBL, Heidelberg, Germany) (bead size of 10 μm suitable for HT-22 cells) and superimposed on a pump (ProSense B.V, Oosterhout, The Netherlands, #NE1000). Collected samples were centrifuged at 800 rpm for 10 min at 4 °C. The supernatant was further centrifuged at 9000× g for 10 min at 4 °C. The resulting pellet was the crude mitochondria. Finally, the mitochondria were suspended in an isolation buffer (HEPES 20 mM, sucrose 250 mM EDTA 3 mM, pH 7.5) for subsequent experiments. The whole procedure was executed on ice.\nThe protein concentration of isolated mitochondria was determined using the Pierce™ BCA Protein Assay Kit (Pierce™ BCA Protein Assay Kit, Thermo Scientific, Rockford, IL, USA, #23225). Respiration of the isolated mitochondria from HT-22 cells was analyzed using the high-resolution respirometry oxygraph O2K (Oroboros Systems, Innsbruck, Austria). The isolated mitochondria (200 μg) prepared as previously described, were treated with either CE3F4, ESI-05, ethanol, or DMSO as appropriate for 25 min, followed by mitochondrial respiration measurements. Mitochondrial state 1 was determined by continuous stirring at 750 rpm in 1 mL of MiR05 buffer (MgCl2 3 mM, lactobionic acid 60 mM, EGTA 0.5 mM taurine 20 mM, KH2PO4 10 mM, D-Sucrose 110 mM, HEPES 20 mM, BSA, essential fatty acid-free1 g/L, pH adjusted to 7.4). DatLab software (Oroboros Systems, Innsbruck, Austria) was used to record real-time oxygen flux per tissue mass (pmol O2. s^−1 × mg^−1) at 37 °C and to perform oxygen polarography. States were described as, State 2: a non-phosphorylating respiration state which was assessed by addition of complex-I linked substrates, 5 mM pyruvate (Sigma–Aldrich Chemie GmbH, Steinheim, Germany #P-2256), and 2 mM malate (Sigma–Aldrich Chemie GmbH, Steinheim, Germany, #374318); State 3: the oxidative-phosphorylation capacity (OXPHOS) state, of complex-I linked activity or basal respiration was achieved by adding a saturating concentration of 0.8 mM ADP (Sigma–Aldrich Chemie GmbH, Steinheim, Germany, #A5285), this allowed for calculation of ADP-coupled repiration; State 4: Achieved by subsequent addition of oligomycin 0.1 μM/mL (Sigma–Aldrich Chemie GmbH, Steinheim, Germany, #O4876) following state 3, oligomycin blocks the ATP-synthase, thereby inhibiting proton passage; State 3U: Was assessed by incremental steps of 1 μM addition of FCCP—theprotonophore carbonyl cyanide 4-(trifluoromethoxy) phenylhydrazone (Sigma–Aldrich Chemie GmbH, Steinheim, Germany, #C2920), this allowed the calculation of the reserve capacity of the Electron Transport Chain (ETC); Finally, sodium dithionite (DTT, Sigma–Aldrich Chemie GmbH, Steinheim, Germany, #15,795-3) was added to reduce all residual oxygen that was present in the chamber and to calibrate the oxygen content in the chamber. The O2 slope (pmol × (mL/s)) of isolated mitochondria was the oxygen concentration and also the initial derivate of the oxygen concentration—a derivative of oxygen consumption. Measurements were recorded in intervals of 2 s by using a background correction after calibration of the polarographic oxygen sensors."}, "[2]": {"system": "HT-22 cells", "experiment": "Mitochondrial superoxide, MitoSOX FACS", "procedure": "(§1) Flow cytometry analysis using the CytoFLEXS benchtop flow cytometer (Beckman Coulter Life Sciences, Indianapolis, IN, USA) was used to evaluate intracellular parameters that are associated with not only oxidative stress but also mitochondrial dysfunction, and cell death. HT-22 cells (40,000 cells/well) seeded in 24-well plates were treated with various conditions. Treatment groups included: control condition (DMSO 1%), erastin 1 µM or 1.5 µM, CE3F4 100 µM, and co-treatment of erastin and CE3F4. Three separate wells were analyzed for each condition and the same number of counts (10,000/well) were measured by flow cytometry. At least three independent experiments were performed, and the Kaluza Analysis 1.5 software was employed for quantification of data.\nMitoSOX dye (Invitrogen, Oregon City, OR, USA, #M36008, Lot#1924466) was used to evaluate mitochondrial ROS. The MitoSOX dye is able to permeate live cells and also selectively target mitochondria where it is swiftly oxidized by superoxides but not by other reactive oxygen species. […] Incubation of HT-22 cells with MitoSOX™ 1.25 μM dye was done for 30 min at 37 °C. Fluorescence excitation and detection were done at 488 nm and 690/50 nm respectively."}, "[3]": {"system": "HT-22 cells", "experiment": "Mitochondrial membrane potential, TMRE FACS", "settings": "for effect on erastin-induced ΔΨm loss: no significant difference to control", "procedure": "as §1\nStaining with TMRE™ dye (tetramethylrhodamine-ethyl ester; Invitrogen, Oregon City, OR, USA, #T669) was used to determine loss of mitochondrial membrane potential (MMP) (ΔΨm). […] Collected cells were incubated for 20 min with TMRE 0.2 μM at 37 °C. Fluorescence excitation and detection were done at 488 nm 690/50 nm respectively."}, "[4]": {"system": "HT-22 cells", "experiment": "Lipid peroxidation, BODIPY FACS", "settings": "100 μM CE3F4 + erastin 1 μM", "procedure": "as §1\nThe staining dye BODIPY 2 μM (Invitrogen, Karlsruhe, Germany, # D3861, Lot # 1890330) was used to estimate lipid peroxidation. Erastin treatment was done for 4 h. HT-22 cells were then stained for 30 min at RT, followed by a one-time wash with PBS and finally analyzed. Fluorescence excitation and detection were done at 488 nm and 530 nm respectively."}, "[5]": {"system": "HT-22 cells", "experiment": "Brightfield images of cell morphology", "assay_type": "cell-based, mouse", "settings": "100 μM CE3F4 + erastin 1 μM"}}}
{"smiles": "CC1CCc2c(cc(Br)c(F)c2Br)N1C=O", "note": "(stereo not drawn) [CE3F4]", "values": [{"measurement": "ADP-coupled respiration", "setting": "[1]; 30 μM CE3F4", "result": "no significant differences"}, {"measurement": "ADP-coupled respiration", "setting": "[1]; 100 µM CE3F4", "result": "no significant differences"}, {"measurement": "mitochondrial respiration states (2, 3, 4, 3U)", "setting": "[1]; CE3F4 30 μM and 100 μM, 25 min", "result": "no significant effect on any mitochondrial respiration states"}, {"measurement": "mitochondrial superoxide levels", "setting": "[2]; 30 μM CE3F4 alone", "result": "shift towards the intermediate mitochondrial superoxide"}, {"measurement": "mitochondrial superoxide levels (intermediate)", "setting": "[2]; 100 μM CE3F4 alone, compared with 30 μM", "result": "further increased"}, {"measurement": "effect on erastin-mediated mitochondrial superoxide levels", "setting": "[2]; CE3F4 30 μM + erastin 1 μM", "result": "did not affect erastin-mediated effects on mitochondrial superoxide levels"}, {"measurement": "effect on erastin-mediated mitochondrial superoxide levels", "setting": "[2]; CE3F4 100 μM + erastin", "result": "significantly attenuated the increase in high mitochondrial superoxide levels"}, {"measurement": "effect on erastin-induced ΔΨm loss", "setting": "[3]; 100 µM CE3F4 + erastin 1 μM", "result": "significantly attenuated ΔΨm loss"}, {"measurement": "effect on erastin-induced ΔΨm loss", "setting": "[3]; 100 µM CE3F4 + erastin 1.5 μM", "result": "significantly attenuated ΔΨm loss"}, {"measurement": "mitochondrial membrane potential (ΔΨm)", "setting": "[3]; CE3F4 alone", "result": "slight hyperpolarization"}, {"measurement": "effect on erastin-induced lipid peroxidation", "setting": "[4]", "result": "significantly attenuated"}, {"measurement": "effect on erastin-induced alteration in cell morphology", "setting": "[5]", "result": "prevented"}]}
